Reference: PubChem BioAssay AID248 (DTP/NCI, 2004)
“And” between values parts separate entries of the source, which are not always exact repeats. Equal entries are not always repeated. Inconclusive results and toxic doses are left out.

Tested on: L1210 leukemia ip in BDF1 mice, survival T/C
Experiment: NCI In Vivo Anticancer Drug Screen. Data for tumor model L1210 Leukemia (intraperitoneal) in B6D2F1 (BDF1) mice
Details: endpoint: mean survival time, higher = longer survival
Summary of the method: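 Antitumor effect is assessed in tumor-bearing animals. Survival in the compound arm is compared with a vehicle-dosed control arm and expressed as their quotient.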

[1] = dose: 100.0 mg/kg/injection, schedule: Q01DX009 (ip), vehicle: saline with Tween-80
[2] = dose: 200.0 mg/kg/injection, schedule: Q01DX009 (ip), vehicle: saline with Tween-80
[3] = dose: 100.0 mg/kg/injection, schedule: Q04DX003 (ip), vehicle: saline with Tween-80
[4] = dose: 200.0 mg/kg/injection, schedule: Q04DX003 (ip), vehicle: saline with Tween-80
[5] = dose: 400.0 mg/kg/injection, schedule: Q04DX003 (ip), vehicle: saline with Tween-80
[6] = dose: 100.0 mg/kg/injection, schedule: Q04DX003 (ip), vehicle: saline

Structure (SMILES): Clc1ccc2c(c1)C1=NCCCN1c1cc(Cl)ccc1-2
- T/C (dose: 2.5 mg/kg/injection, schedule: Q01DX009 (ip), vehicle: saline): 105 % of control
- T/C (dose: 2.5 mg/kg/injection, schedule: Q04DX002 (ip), vehicle: saline): 100 % of control
- T/C (dose: 2.5 mg/kg/injection, schedule: Q04DX003 (ip), vehicle: Klucel (hydroxypropylcellulose) (HPC)): 102 % of control
- T/C (dose: 5.0 mg/kg/injection, schedule: Q01DX009 (ip), vehicle: saline): 97 % of control
- T/C (dose: 5.0 mg/kg/injection, schedule: Q04DX002 (ip), vehicle: saline): 96 % of control
- T/C (dose: 5.0 mg/kg/injection, schedule: Q04DX003 (ip), vehicle: Klucel (hydroxypropylcellulose) (HPC)): 104 % of control
- T/C (dose: 10.0 mg/kg/injection, schedule: Q01DX009 (ip), vehicle: saline): 97 % of control
- T/C (dose: 10.0 mg/kg/injection, schedule: Q04DX002 (ip), vehicle: saline): 111 % of control
- T/C (dose: 10.0 mg/kg/injection, schedule: Q04DX003 (ip), vehicle: Klucel (hydroxypropylcellulose) (HPC)): 104 % of control
- T/C (dose: 20.0 mg/kg/injection, schedule: Q04DX003 (ip), vehicle: Klucel (hydroxypropylcellulose) (HPC)): 91 % of control

Structure (SMILES): C/C(=N/O)c1ccc2c(c1)/C(=N/O)c1ccccc1-2
- T/C (dose: 100.0 mg/kg/injection, schedule: Q01DX001 (ip), vehicle: carboxymethylcellulose (CMC)): 109 % of control
- T/C (dose: 200.0 mg/kg/injection, schedule: Q01DX001 (ip), vehicle: carboxymethylcellulose (CMC)): 94 % of control
- T/C (dose: 400.0 mg/kg/injection, schedule: Q01DX001 (ip), vehicle: carboxymethylcellulose (CMC)): 93 % of control

Structure (SMILES): CN(C)/N=C(\CBr)c1ccc(Br)cc1
- T/C (dose: 50.0 mg/kg/injection, schedule: Q01DX009 (ip), vehicle: saline with Tween-80): 96 % of control
- T/C [1]: 107 % of control
- T/C [2]: 89 % of control

Structure (SMILES): COc1cc(C(=O)OC2CC34CCNC35CC(OC5(OC)C2O)c2cc3c(cc24)OCO3)ccc1O (configuration not stated)
- T/C (dose: 0.25 mg/kg/injection, schedule: Q01DX015 (ip), vehicle: carboxymethylcellulose (CMC)): 100 % of control
- T/C (dose: 0.5 mg/kg/injection, schedule: Q01DX015 (ip), vehicle: carboxymethylcellulose (CMC)): 100 % of control
- T/C (dose: 0.75 mg/kg/injection, schedule: Q01DX015 (ip), vehicle: carboxymethylcellulose (CMC)): 103 % of control
- T/C (dose: 1.0 mg/kg/injection, schedule: Q01DX009 (ip), vehicle: carboxymethylcellulose (CMC)): 95 % of control
- T/C (dose: 1.0 mg/kg/injection, schedule: Q01DX015 (ip), vehicle: carboxymethylcellulose (CMC)): 104 % of control and 108 % of control
- T/C (dose: 1.25 mg/kg/injection, schedule: Q01DX015 (ip), vehicle: carboxymethylcellulose (CMC)): 96 % of control
- T/C (dose: 1.5 mg/kg/injection, schedule: Q01DX015 (ip), vehicle: carboxymethylcellulose (CMC)): 102 % of control
- T/C (dose: 1.75 mg/kg/injection, schedule: Q01DX015 (ip), vehicle: carboxymethylcellulose (CMC)): 98 % of control
- T/C (dose: 2.0 mg/kg/injection, schedule: Q01DX009 (ip), vehicle: carboxymethylcellulose (CMC)): 92 % of control
- T/C (dose: 2.0 mg/kg/injection, schedule: Q01DX015 (ip), vehicle: carboxymethylcellulose (CMC)): 93 % of control
- T/C (dose: 2.5 mg/kg/injection, schedule: Q01DX015 (ip), vehicle: carboxymethylcellulose (CMC)): 96 % of control

Structure (SMILES): CCOC(=O)c1ccc(N(C=O)CCC(=O)CCl)cc1
- T/C (dose: 3.0 mg/kg/injection, schedule: Q01DX009 (ip), vehicle: saline): 104 % of control
- T/C (dose: 5.0 mg/kg/injection, schedule: Q01DX001 (ip), vehicle: saline): 95 % of control
- T/C (dose: 6.0 mg/kg/injection, schedule: Q01DX009 (ip), vehicle: saline): 100 % of control
- T/C (dose: 10.0 mg/kg/injection, schedule: Q01DX001 (ip), vehicle: saline): 102 % of control
- T/C (dose: 12.0 mg/kg/injection, schedule: Q01DX009 (ip), vehicle: saline): 94 % of control
- T/C (dose: 12.5 mg/kg/injection, schedule: Q01DX009 (ip), vehicle: carboxymethylcellulose (CMC)): 107 % of control
- T/C (dose: 20.0 mg/kg/injection, schedule: Q01DX001 (ip), vehicle: saline): 104 % of control
- T/C (dose: 25.0 mg/kg/injection, schedule: Q01DX009 (ip), vehicle: carboxymethylcellulose (CMC)): 107 % of control
- T/C (dose: 40.0 mg/kg/injection, schedule: Q01DX001 (ip), vehicle: saline): 106 % of control

Structure (SMILES): CC(C)(Oc1ccc(Cl)cc1Cl)C(=O)O
- T/C (dose: 100.0 mg/kg/injection, schedule: Q01DX009 (ip), vehicle: gum acacia): 90 % of control

Structure (SMILES): CC[C@H](CC[C@@H](C)[C@H]1CC[C@H]2[C@@H]3CC[C@H]4C[C@@H](O)CC[C@]4(C)[C@H]3CC[C@]12C)C(C)C
- T/C (dose: 100.0 mg/kg/injection, schedule: Q01DX001 (ip), vehicle: water): 90 % of control
- T/C (dose: 200.0 mg/kg/injection, schedule: Q01DX001 (ip), vehicle: water): 91 % of control
- T/C (dose: 400.0 mg/kg/injection, schedule: Q01DX001 (ip), vehicle: water): 93 % of control

Structure (SMILES): COc1cc(N)c(C(F)(F)F)cc1OC
- T/C [1]: 96 % of control
- T/C [3]: 103 % of control
- T/C [2]: 94 % of control
- T/C [4]: 105 % of control
- T/C (dose: 400.0 mg/kg/injection, schedule: Q01DX009 (ip), vehicle: saline with Tween-80): 104 % of control
- T/C [5]: 104 % of control

Structure (SMILES): CC12CCc3occc3C1CCC13CC(CO)C(O)(CCC12)C3 (configuration not stated)
- T/C [6]: 94 % of control
- T/C (dose: 200.0 mg/kg/injection, schedule: Q04DX003 (ip), vehicle: saline): 93 % of control

Structure (SMILES): Nc1nc(SSc2nc(N)nc3c2ncn3C2CC(O)C(CO)O2)c2ncn(C3CC(O)C(CO)O3)c2n1 (configuration not stated)
- T/C (dose: 1.0 mg/kg/injection, schedule: Q01DX009 (ip), vehicle: saline): 212 % of control
- T/C (dose: 2.0 mg/kg/injection, schedule: Q01DX009 (ip), vehicle: saline): 223 % of control
- T/C (dose: 75.0 mg/kg/injection, schedule: Q01DX001 (ip), vehicle: saline): 100 % of control
- T/C (dose: 119.0 mg/kg/injection, schedule: Q01DX009 (ip), vehicle: saline): 118 % of control
- T/C (dose: 178.0 mg/kg/injection, schedule: Q01DX009 (ip), vehicle: saline): 116 % of control
- T/C (dose: 267.0 mg/kg/injection, schedule: Q01DX001 (ip), vehicle: saline): 168 % of control
- T/C (dose: 267.0 mg/kg/injection, schedule: Q01DX009 (ip), vehicle: saline): 88 % of control
- T/C (dose: 400.0 mg/kg/injection, schedule: Q01DX001 (ip), vehicle: saline): 157 % of control and 178 % of control
- T/C (dose: 600.0 mg/kg/injection, schedule: Q01DX001 (ip), vehicle: saline): 201 % of control
- T/C (dose: 31.3 micrograms/kg/injection, schedule: Q01DX009 (ip), vehicle: saline): 96 % of control
- T/C (dose: 62.5 micrograms/kg/injection, schedule: Q01DX009 (ip), vehicle: saline): 109 % of control
- T/C (dose: 125.0 micrograms/kg/injection, schedule: Q01DX009 (ip), vehicle: saline): 112 % of control
- T/C (dose: 250.0 micrograms/kg/injection, schedule: Q01DX009 (ip), vehicle: saline): 109 % of control

Structure (SMILES): Cc1ccc(-n2c(O)c(N=Nc3ccc(Br)cc3)c(=O)n(-c3ccc(I)cc3)c2=S)cc1
- T/C (dose: 50.0 mg/kg/injection, schedule: Q01DX001 (ip), vehicle: Klucel (hydroxypropylcellulose) (HPC)): 100 % of control
- T/C (dose: 100.0 mg/kg/injection, schedule: Q01DX001 (ip), vehicle: Klucel (hydroxypropylcellulose) (HPC)): 109 % of control
- T/C (dose: 200.0 mg/kg/injection, schedule: Q01DX001 (ip), vehicle: Klucel (hydroxypropylcellulose) (HPC)): 106 % of control

Structure (SMILES): NCCC(=O)OC1CCCc2c(O)c3c(c(O)c21)C(=O)c1ccccc1C3=O (configuration not stated)
- T/C (dose: 12.5 mg/kg/injection, schedule: Q04DX003 (ip), vehicle: saline): 93 % of control
- T/C (dose: 25.0 mg/kg/injection, schedule: Q01DX009 (ip), vehicle: saline): 93 % of control
- T/C (dose: 25.0 mg/kg/injection, schedule: Q04DX003 (ip), vehicle: saline): 95 % of control
- T/C (dose: 50.0 mg/kg/injection, schedule: Q01DX009 (ip), vehicle: saline): 97 % of control
- T/C (dose: 50.0 mg/kg/injection, schedule: Q04DX003 (ip), vehicle: saline): 98 % of control
- T/C [6]: 102 % of control

Structure (SMILES): Nc1ccc(-c2ccc(-n3cccc3)cc2)cc1
- T/C (dose: 25.0 mg/kg/injection, schedule: Q01DX001 (ip), vehicle: saline): 100 % of control
- T/C (dose: 50.0 mg/kg/injection, schedule: Q01DX001 (ip), vehicle: saline): 96 % of control
- T/C (dose: 100.0 mg/kg/injection, schedule: Q01DX001 (ip), vehicle: saline): 109 % of control

Structure (SMILES): O=P(N=C=S)(N=C=S)N=C=S
- T/C (dose: 75.0 mg/kg/injection, schedule: Q01DX001 (ip), vehicle: other): 114 % of control

Structure (SMILES): COc1ccc(Nc2nc(N)nc(CNc3ccc(C)cc3)n2)cc1
- T/C [3]: 94 % of control
- T/C [4]: 92 % of control
- T/C [5]: 96 % of control
